{"source": "paper PMC7681013", "about": "“Structure and kinetics of indole-3-glycerol phosphate synthase from Pseudomonas aeruginosa: Decarboxylation is not essential for indole formation” (The Journal of Biological Chemistry, 2020)", "molecular_target": "T1, PaIGPS (Pseudomonas aeruginosa, UniProt P20577)", "T1 construct": "gene trpC", "T1 sequence (P20577 1-278)": "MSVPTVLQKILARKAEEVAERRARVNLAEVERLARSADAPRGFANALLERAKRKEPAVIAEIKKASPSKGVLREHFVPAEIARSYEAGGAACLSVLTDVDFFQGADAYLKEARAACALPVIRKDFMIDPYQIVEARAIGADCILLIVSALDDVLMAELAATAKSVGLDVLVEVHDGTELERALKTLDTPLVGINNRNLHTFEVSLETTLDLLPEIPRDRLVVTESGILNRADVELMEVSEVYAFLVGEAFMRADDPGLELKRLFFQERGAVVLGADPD", "assay": "X-ray crystal structure, […] Å", "type": "binding", "details": "active site, nonreactive substrate analog; seven of eight chains; pH 3.4 crystals", "data": [{"compound": "O=C(O)c1ccccc1NC[C@@H](O)[C@H](O)[C@H](O)COP(=O)(O)O", "note": "[rCdRP]", "values": [{"measurement": "X-ray crystal structure, 2.1 Å", "result": "The substrate analog, rCdRP, is bound in the active site of the seven more ordered chains."}]}]}
